Results as given in patent US4292317A, “1,4-Dihydro-quinoline-3-carboxylic acid derivatives, process for their preparation and compositions containing them” (Laboratorie Roger Bellon, priority 1977, dated 1981).
In brackets after ≈: the same amount, converted by molar mass.

How the values were obtained:
in vivo = conditions: mouse, mice
[1] = test system: Pseudomonas aeruginosa No. 12; assay: M.I.C. for germ used in experimental infection; assay type: cell-based; conditions: NO.12, 18 h
Protocol: (§1) After sterilisation at 120° C., the pH was 6.8.
(§2) The minimum inhibitory concentrations (M.I.C.) were determined by dilution of the test compounds in this mixture, the concentration ranging from 0.05 to 100 μg/cm^3 in a geometric progression with a factor of 2.
(§3) The inoculation of the dishes was carried out by means of a multiple inoculator with 10^-3 dilutions of 18 hour old broth cultures.
(§4) The dishes were placed in an oven at 37° C. and the readings were taken afer an incubation time of 18 hours. The M.I.C. was taken as the lowest concentration which inhibited a culture.

Strept. pyogenes A. 65 [2] = assay: M.I.C. for germ used in experimental infection; assay type: cell-based; conditions: Streptococcus pyogenes, A.65, 18 h
Protocol: as §1, §2, §3, §4

Escherichia coli P 5101 [3] = assay: M.I.C. for germ used in experimental infection; assay type: cell-based; conditions: P5101, 18 h
Protocol: as §1, §2, §3, §4

Staph. aureus 50,774 [4] = assay: M.I.C. for germ used in experimental infection; assay type: cell-based; conditions: Staphylococcus aureus, 18 h
Protocol: as §1, §2, §3, §4

Salm. typhi 0901 = assay: microbe, parasite or virus in culture; assay type: cell-based; conditions: Salmonella enterica, 18 h; Table III; Salm. typhi 0901
Protocol: as §1, §2, §3, §4

Strepto D.M. 19 = assay: M.I.C. in vitro, nutrient agar dilution; assay type: cell-based; conditions: 18 h
Protocol: as §1, §2, §3, §4

Providentia 0223 = assay: M.I.C. in vitro, nutrient agar dilution; assay type: cell-based; conditions: 18 h
Protocol: as §1, §2, §3, §4

Esch. coli 95 I.S.M. = assay: M.I.C. in vitro, nutrient agar dilution; assay type: cell-based; conditions: Escherichia coli, 95I.S.M., 18 h
Protocol: as §1, §2, §3, §4

Pr. mirabilis Nig = assay: M.I.C. in vitro, nutrient agar dilution; assay type: cell-based; conditions: Proteus mirabilis, 18 h
Protocol: as §1, §2, §3, §4

Serratia = assay: M.I.C. in vitro, nutrient agar dilution; assay type: cell-based; conditions: 18 h
Protocol: as §1, §2, §3, §4

Pr. morganii A.236 = assay: M.I.C. in vitro, nutrient agar dilution; assay type: cell-based; conditions: Morganella morganii, A.236, 18 h
Protocol: as §1, §2, §3, §4

S. enteritidis Danysz = assay: M.I.C. in vitro, nutrient agar dilution; assay type: cell-based; conditions: Salmonella enterica, ENTERITIDIS, 18 h
Protocol: as §1, §2, §3, §4

Esch. coli 54.127 O.M.S. = assay: M.I.C. in vitro, nutrient agar dilution; assay type: cell-based; conditions: Escherichia coli, 54.127O.M.S., 18 h
Protocol: as §1, §2, §3, §4

B. subtilis = assay: M.I.C. in vitro, nutrient agar dilution; assay type: cell-based; conditions: Bacillus subtilis, 18 h
Protocol: as §1, §2, §3, §4

Arizona 6.211 = assay: M.I.C. in vitro, nutrient agar dilution; assay type: cell-based; conditions: 18 h
Protocol: as §1, §2, §3, §4

Staph. 9.144 = assay: M.I.C. in vitro, nutrient agar dilution; assay type: cell-based; conditions: 18 h
Protocol: as §1, §2, §3, §4

Bord. bronchis. 4.617 = assay: M.I.C. in vitro, nutrient agar dilution; assay type: cell-based; conditions: 18 h
Protocol: as §1, §2, §3, §4

S. oranienburg 1066 = assay: M.I.C. in vitro, nutrient agar dilution; assay type: cell-based; conditions: Salmonella enterica, 1066, 18 h
Protocol: as §1, §2, §3, §4

Pr. vulgaris 12-53 = assay: M.I.C. in vitro, nutrient agar dilution; assay type: cell-based; conditions: Proteus vulgaris, 1253, 18 h
Protocol: as §1, §2, §3, §4

Klebs. pneum. 10.031 = assay: M.I.C. in vitro, nutrient agar dilution; assay type: cell-based; conditions: 18 h
Protocol: as §1, §2, §3, §4

Esch. coli 111 B4 = assay: M.I.C. in vitro, nutrient agar dilution; assay type: cell-based; conditions: Escherichia coli, 18 h; Table III; Esch. coli 111 B4
Protocol: as §1, §2, §3, §4

Sh. sonnei I.P.S. = assay: M.I.C. in vitro, nutrient agar dilution; assay type: cell-based; conditions: Shigella sonnei, 18 h; Table III; Sh. sonnei I.P.S.; read-out: M.I.C.
Protocol: as §1, §2, §3, §4

Ps. aeruginosa 72.345 = assay: M.I.C. in vitro, nutrient agar dilution; assay type: cell-based; conditions: Pseudomonas aeruginosa, 72.345, 18 h
Protocol: as §1, §2, §3, §4

Ps. aeruginosa A.22 = assay: M.I.C. in vitro, nutrient agar dilution; assay type: cell-based; conditions: Pseudomonas aeruginosa, A.22, 18 h
Protocol: as §1, §2, §3, §4

Staph. 209 P = assay: M.I.C. in vitro, nutrient agar dilution; assay type: cell-based; conditions: 18 h
Protocol: as §1, §2, §3, §4

[5] = test system: Pseudomonas aeruginosa No. 12; assay: Systemic infection in mice; assay type: in vivo; conditions: NO.12, po, 168 h
Protocol: (§5) The activity of the compounds according to the invention against systemic infections in mice, caused by Staphylococcus 50,774, Streptococcus pyogenes A 65, Pseudomonas aeruginosa No. 12 and Escherichia coli P 5101, has been studied.
(§6) The infections were set up by intraperitoneal injection of a suspension of the bacterial culture corresponding to the germ studied. The products were administered orally at the time of injection, and 6 hours later. […] Aureus and for 7 days for the other germs.
(§7) Oxolinic acid was used as the reference substance.

Strept. pyogenes A. 65 [6] = assay: Systemic infection in mice; assay type: in vivo; conditions: Streptococcus pyogenes, A.65, po, 168 h
Protocol: as §5, §6, §7

Escherichia coli P 5101 [7] = assay: Systemic infection in mice; assay type: in vivo; conditions: P5101, po, 168 h
Protocol: as §5, §6, §7

Staph. aureus 50,774 [8] = assay: Systemic infection in mice; assay type: in vivo; conditions: Staphylococcus aureus, po, 336 h
Protocol: as §5, §6, §7

For CCn1cc(C(=O)O)c(=O)c2cc3c(cc21)OCO3 [Oxolinic acid, oxolinic acid, reference compound], the LD50 (in vivo; iv) was 177 mg/kg, the LD50 (in vivo; po) was over 2000 mg/kg and the MIC [1] was 12.5 µg/mL (≈ 47.9 µM). It also gave an MIC (Strept. pyogenes A. 65 [2]) of 100 µg/mL (≈ 383 µM), an MIC (Escherichia coli P 5101 [3]) of 0.2 µg/mL (≈ 0.766 µM) and an MIC (Staph. aureus 50,774 [4]) of 1.56 µg/mL (≈ 5.97 µM). The MIC (Salm. typhi 0901) was 0.4 µg/mL (≈ 1.53 µM), the MIC (Strepto D.M. 19) was 25 µg/mL (≈ 95.7 µM) and the MIC (Providentia 0223) was 25 µg/mL (≈ 95.7 µM). It also gave an MIC (Esch. coli 95 I.S.M.) of 0.1 µg/mL (≈ 0.383 µM), an MIC (Pr. mirabilis Nig) of 0.4 µg/mL (≈ 1.53 µM) and an MIC (Serratia) of 0.8 µg/mL (≈ 3.06 µM). It also gave an MIC (Pr. morganii A.236) of 0.1 µg/mL (≈ 0.383 µM), an MIC (S. enteritidis Danysz) of 0.8 µg/mL (≈ 3.06 µM) and an MIC (Esch. coli 54.127 O.M.S.) of 0.4 µg/mL (≈ 1.53 µM). It also gave an MIC (B. subtilis) of 0.1 µg/mL (≈ 0.383 µM), an MIC (Arizona 6.211) of 0.4 µg/mL (≈ 1.53 µM) and an MIC (Staph. 9.144) of 0.8 µg/mL (≈ 3.06 µM). The MIC (Bord. bronchis. 4.617) was 3.1 µg/mL (≈ 11.9 µM), the MIC (S. oranienburg 1066) was 25 µg/mL (≈ 95.7 µM) and the MIC (Pr. vulgaris 12-53) was 0.05 µg/mL (≈ 0.191 µM). For the same compound, the MIC (Klebs. pneum. 10.031) was 0.1 µg/mL (≈ 0.383 µM), the MIC (Esch. coli 111 B4) was 0.4 µg/mL (≈ 1.53 µM) and the MIC (Sh. sonnei I.P.S.) was 0.2 µg/mL (≈ 0.766 µM). For the same compound, the MIC (Ps. aeruginosa 72.345) was 6.2 µg/mL (≈ 23.7 µM), the MIC (Ps. aeruginosa A.22) was 12.5 µg/mL (≈ 47.9 µM) and the MIC (Staph. 209 P) was 0.8 µg/mL (≈ 3.06 µM). The ED50 [5] was 70.1 mg/kg, the ED90 [5] was 142 mg/kg and the ED50 (Strept. pyogenes A. 65 [6]) was over 100 mg/kg. It also gave an ED90 (Strept. pyogenes A. 65 [6]) of over 100 mg/kg, an ED50 (Escherichia coli P 5101 [7]) of 17 mg/kg and an ED90 (Escherichia coli P 5101 [7]) of 45.1 mg/kg. It also gave an ED50 (Staph. aureus 50,774 [8]) of 53.2 mg/kg and an ED90 (Staph. aureus 50,774 [8]) of 111 mg/kg.
